*1 amine or outer side, *2 acyl side, *3 side chain or, on linkers, in order; H or OH if unused. Where a SMILES comes first, the peptide text is derived from it. Bridges are numbered along the chain shown (N, C = ends). [ ]: non-standard residue; d: D form. The star is where a group is joined. hPhe(3-Cl-4-CF3) = N[C@@H](CCc1ccc(C(F)(F)F)c(Cl)c1)C(=O)O; NPrPhe(4-CF3) = CCCN[C@@H](Cc1ccc(C(F)(F)F)cc1)C(=O)O; X14 = COCCN([C@@H](Cc1ccc(C)cc1)C(=O)[*:2])[*:1]; NMeGly(cPent) = CN[C@H](C(=O)O)C1CCCC1; Pro(4,4-F2) = O=C(O)[C@@H]1CC(F)(F)CN1; NMeD = CN[C@@H](CC(=O)O)C(=O)O; NMeL = CN[C@@H](CC(C)C)C(=O)O; Morpholide = C1CN(*)CCO1; Ac5c = NC1(C(=O)O)CCCC1; NcPrGly = O=C(O)CNC1CC1; Ac4c = NC1(C(=O)O)CCC1; Sar = CNCC(=O)O
How the values were obtained:
[1] = target: GDP-bound NRAS wild-type protein (Homo sapiens, UniProt P01111); assay: Binding to NRAS by surface plasmon resonance (SPR), KD and KD ratio to KRAS; settings: ratio of KD for GDP-bound NRAS wild-type protein to KD for KRAS
Method in brief: (§1)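 GDP-bound biotin-Avi RAS captured at ~100–300 RU, 30°C, pH 7.4 HBS containing 10 µM GDP, 10 mM MgCl2, 1 mM DTT, 0.01% Tween 20 and 4% DMSO. KD by 1:1 fitting.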

[2] = target: HRAS wild-type protein (Homo sapiens, UniProt P01112); assay: Binding to HRAS by surface plasmon resonance (SPR), KD and KD ratio to KRAS; settings: ratio of KD for HRAS wild-type protein to KD for KRAS
Method in brief: as §1

[3] = test system: human lung cancer strain NCI-H441; format: cell-based
Method in brief: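 Readout: […] after the ATP-based reagent. Compound: serial dilutions in dimethyl sulfoxide.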

Sequence of HRAS wild-type protein (P01112 whole entry): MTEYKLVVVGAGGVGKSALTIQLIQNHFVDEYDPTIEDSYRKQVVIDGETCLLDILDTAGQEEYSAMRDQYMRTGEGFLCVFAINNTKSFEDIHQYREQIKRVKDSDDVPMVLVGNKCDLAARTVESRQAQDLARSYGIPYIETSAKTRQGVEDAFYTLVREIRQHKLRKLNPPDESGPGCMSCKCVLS
Sequence of GDP-bound NRAS wild-type protein (P01111 whole entry): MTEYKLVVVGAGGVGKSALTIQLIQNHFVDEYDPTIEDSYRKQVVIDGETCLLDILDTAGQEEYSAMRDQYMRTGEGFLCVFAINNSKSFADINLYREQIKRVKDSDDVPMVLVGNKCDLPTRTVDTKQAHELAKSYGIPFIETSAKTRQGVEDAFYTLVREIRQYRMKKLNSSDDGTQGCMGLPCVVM

Row | Structure (SMILES) | IC50 [3] [nM] | NRAS /KRAS [1] | HRAS /KRAS [2]
1 | CCCN1C(=O)CN(C)C(=O)CN(C2CC2)C(=O)[C@H]([C@@H](C)CC)NC(=O)[C@H](CC(C)C)N(C)C(=O)C[C@@H](C(=O)N2CCOCC2)N(C)C(=O)[C@H](C2CCCC2)N(C)C(=O)C2(CCCC2)NC(=O)[C@@H]2CCCN2C(=O)[C@H](CCc2ccc(C(F)(F)F)c(Cl)c2)NC(=O)CN(C)C(=O)[C@@H]1Cc1ccc(C(F)(F)F)cc1 [PP0252] ([NMeL]I[NcPrGly][Sar][NPrPhe(4-CF3)][Sar][hPhe(3-Cl-4-CF3)]P[Ac5c][NMeGly(cPent)][NMeD]-Morpholide; lactam N-11) | 19.4 | B (a compound having 3 or more and less than 10 is denoted as B) | B (a compound having 3 or more and less than 10 is denoted as B)
2 | CCCN1C(=O)CN(C)C(=O)CN(C)C(=O)[C@H]([C@@H](C)CC)NC(=O)[C@H](CC(C)C)N(C)C(=O)C[C@@H](C(=O)N2CCOCC2)N(C)C(=O)[C@H](C2CCCC2)N(C)C(=O)C2(CCC2)NC(=O)[C@@H]2CC(F)(F)CN2C(=O)[C@H](CCc2ccc(C(F)(F)F)c(Cl)c2)NC(=O)CN(C)C(=O)[C@@H]1Cc1ccc(C(F)(F)F)cc1 [PP0207] ([NMeL]I[Sar][Sar][NPrPhe(4-CF3)][Sar][hPhe(3-Cl-4-CF3)][Pro(4,4-F2)][Ac4c][NMeGly(cPent)][NMeD]-Morpholide; lactam N-11) | 1.9 | B (a compound having 3 or more and less than 10 is denoted as B) | C (A compound having a KD ratio of 0.1 or more and less than 3 is denoted as C)
3 | CC[C@H](C)[C@@H]1NC(=O)[C@H](CC(C)C)N(C)C(=O)C[C@@H](C(=O)N2CCOCC2)N(C)C(=O)[C@H](C2CCCC2)N(C)C(=O)C2(CCCC2)NC(=O)[C@@H]2CCCN2C(=O)[C@H](CCc2ccc(C(F)(F)F)c(Cl)c2)NC(=O)CN(C)C(=O)[C@H](Cc2ccc(C)cc2)N(CCOC)C(=O)CN(C)C(=O)CN(C)C1=O [PP0104] ([NMeL]I[Sar][Sar][X14][Sar][hPhe(3-Cl-4-CF3)]P[Ac5c][NMeGly(cPent)][NMeD]-Morpholide; lactam N-11) | 6.7 | B (a compound having 3 or more and less than 10 is denoted as B) | C (A compound having a KD ratio of 0.1 or more and less than 3 is denoted as C)
4 | CCO[C@@H]1C[C@H]2C(=O)NC3(CCC3)C(=O)N(C)[C@@H](C(CC)CC)C(=O)N(C)[C@H](C(=O)N3CCCCC3)CC(=O)N(C)[C@H]3CCCCC/C=C/c4ccc(cc4)C[C@@H](C(=O)N(C)CC(=O)N[C@@H](CCc4ccc(Cl)c(Cl)c4)C(=O)N2C1)N1CC/C=C\C[C@@H](C1=O)N(C)C(=O)CN(C)C(=O)[C@H]([C@@H](C)CC)NC3=O [PP3051] | 42.1 | AA (a compound having 20 or more is denoted as AA) | A (a compound having 10 or more and less than 20 is denoted as A)

Continued, in another order:

Row | IC50 [3] [nM] | Structure (SMILES) | NRAS /KRAS [1] | HRAS /KRAS [2]
5 | 64.8 | C#CC[C@H]1C(=O)N[C@@H]([C@@H](C)CC)C(=O)N(C)CC(=O)N(C)[C@H]2C/C=C\CCN(C2=O)[C@@H](Cc2ccc(C(F)(F)F)cc2)C(=O)N(C)CC(=O)N[C@@H](CCc2ccc(C(F)(F)F)c(OC)c2)C(=O)N2CC[C@H]2C(=O)NC2(CCC2)C(=O)N(C)[C@@H](C2CCCC2)C(=O)N(C)[C@H](C(=O)N(C)C)CC(=O)N1C [PP2911] | A (a compound having 10 or more and less than 20 is denoted as A) | B (a compound having 3 or more and less than 10 is denoted as B)
6 | 72 | CCC[C@H]1C(=O)N[C@@H]([C@@H](C)CC)C(=O)N(C)CC(=O)N(C)[C@H]2C/C=C\CCN(C2=O)[C@@H](Cc2ccc(C(F)(F)F)cc2)C(=O)N(C)CC(=O)N[C@@H](CCc2ccc3c(C)c(C)n(C)c3c2)C(=O)N2C[C@H](OCC)C[C@H]2C(=O)NC2(CC(C)(C)C2)C(=O)N(C)[C@@H](C2CCCC2)C(=O)N(C)[C@H](C(=O)N(C)C)CC(=O)N1C [PP2893] | A (a compound having 10 or more and less than 20 is denoted as A) | A (a compound having 10 or more and less than 20 is denoted as A)

Reference: EP4603105A1, “PHARMACEUTICAL COMPOSITION CONTAINING CYCLIC COMPOUND HAVING SELECTIVE KRAS INHIBITORY EFFECT AGAINST HRAS AND NRAS” (CHUGAI SEIYAKU KABUSHIKI KAISHA, priority 2022, dated 2024)
